The text below walks through data of US6989396B2, “Tropane alkaloid multidrug resistance inhibitors from Erythroxylum pervillei and use of the same” (The Board of Trustees of the University of Illinois, priority 2001, dated 2006).

Values joined by “and” are separate entries in the source; they are usually repeats but may differ in a detail not shown here. Equal values may be shown once.

As usually defined, the IC50 is the concentration that gives 50% inhibition.

In one assay the test system is KB-3 cells. As to the kind of experiment: Growth inhibitory potential (sulforhodamine B cell survival assay): KB-3. In kind it is cell-based. The following applies: Homo sapiens, KB3; 72 hours; read-out: IC50 KB-3. Here is the method: One part of a natural product drug discovery program involves monitoring the potential of plant extracts to reverse multiple drug resistance. […] To investigate the potential of plant extracts or compounds to reverse multidrug-resistance, KB-V1 cells are treated with different concentrations of plant extracts or compounds in the presence (1 μg/ml) or absence of vinblastine.
(§1) Cytotoxic potential. The cytotoxic potential of test substances with KB-3, KB-V1 and KB-8-5 cells was determined as described previously (24). Briefly, various concentrations of test compounds (dissolved in 10 μl of 10% DMSO) were transferred to 96-well plates, and 190 μl aliquots of cell suspensions (5×10^4 cells/ml) were added to each well. The plates then were incubated for 72 hours at 37° C. (100% humidity with a 5% CO2 atmosphere in air), and 100 μl of cold 20% aqueous trichloroacetic acid were added to the growth medium in each well to fix the cells. The cultures were incubated at 4° C. for 30 minutes, washed, air-dried, stained with sulforhodamine B solution, and washed with 1% acetic acid. Finally, 200 μl of 10 mM Tris base were added to each well and the optical densities were determined at 515 nm utilizing an ELISA plate reader. In each case, a zero-day control was performed by adding an equivalent number of cells to several wells and incubating at 37° C. for 30 minutes, and processing as described above. Optical density values obtained with the zero-day control were subtracted, and cell survival, relative to control (solvent-treated) cultures, was calculated. The cytotoxic potential of the compounds with CEM and CEM/VLB100 cells was determined as described by Beck et al. (30). Cells were grown in 24-well plates at a density of 5–6×10^5 cells/ml. At 48 hours, the cell number was determined using a Coulter Counter, with a channelizer to distinguish cells from debris.

The subject of the next assay is KB-8-5 cells. As to the kind of experiment: In vivo hollow fiber test: KB-8-5. On the set-up: species or system NCr nu/nu mice. The following applies: vinblastine 100 μg/kg; reversing agents 0.136 mmol/kg. Here is the method:
(§2) In vivo hollow fiber test. […] Confluent monolayers of KB-3, KB-V1 or KB-8-5 cells were harvested, collected by centrifugation and resuspended in conditioned medium at a concentration of 7.5×10^5 cells/ml.
(§3) Test compounds were administrated once daily by intraperitoneal injection from day 3–6 after implantation. Body weights were measure daily.
(§4) After incubating at 37° C. for 4 hours, the culture medium was aspirated and the samples were washed twice with normal saline containing 2.5% protamine sulfate solution by overnight incubation at 4° C. […] The formazan was extracted from each sample with DMSO (250 μl/well) for 4 hours at room temperature on a rotation platform.

Another assay deals with CEM/VLB100 cells. As to the kind of experiment: MDR reversal in drug-resistant human leukemia CEM/VLB100 cells. The assay is classed as cell-based. The following applies: Homo sapiens; CEM/VLB100 cells; read-out: IC50 value of the cytotoxic drug in the absence of modulator. Here is the method: as §1, with “Finally, 200 μl of 10 mM Tris base were added to each well and the optical densities were determined at 515 nm utilizing an ELISA plate reader.” left out

The subject of assay [1] is KB-V1 cells. As to the kind of experiment: In vivo hollow fiber test: KB-V1. On the set-up: species or system NCr nu/nu mice. Here is the method:
as §2, §3, §4

Assay [2] has as its system KB-V1 cells. The following applies: growth inhibitory effect of vinblastine; cited from earlier work.

Turning to `CC[C@]1(O)C[C@@H]2CN(CCc3c([nH]c4ccccc34)[C@@](C(=O)OC)(c3cc4c(cc3OC)N(C)[C@H]3[C@@](O)(C(=O)OC)[C@H](OC(C)=O)[C@]5(CC)C=CCN6CC[C@]43[C@@H]65)C2)C1` [vinblastine, reference compound], the figures for the IC50 with KB-3 cells and with CEM/VLB100 cells were 40 nM and 5000 nM, respectively. For the same molecule, in the assay with KB-8-5 cells, the “Growth inhibition, single agent, KB-8-5, s.c. site” value turned out to be 2.3%. Also, the “growth inhibition, administered as single agents” value with KB-V1 cells [1] (KB-V1 or KB-8-5 cells in hollow fibers implanted into NCr nu/nu mice) is on record as “not significantly inhibited”. In addition, the “Observed inhibition from coadministration with vinblastine, KB-V1, i.p. site” value with KB-V1 cells [1] (vinblastine 250 μg/kg + reversing agent 0.136 mmol/kg, i.p. injection once daily days 3–6) is 60.3%. Also, the “Growth inhibition, single agent, KB-V1, s.c. site” value with KB-V1 cells [1] (vinblastine 250 μg/kg, reversing agents 0.136 mmol/kg, i.p. injection once daily days 3–6) is 3.8% and 0%. In addition, in the assay with KB-V1 cells [2], the “resistance of KB-V1 cells relative to parental KB-3 cells” value was more than 200 fold.
